Experimental data: US12391650B2, “Catecholamine prodrugs for use in the treatment of Parkinson's disease” (H. Lundbeck A/S, priority 2019, dated 2025)
Where two headings read alike, the source gives them in different places.

Legend:
[1] = various animal models relevant for Parkinson's Disease; cited from earlier work
[2] = rats; cited from earlier work
[3] = PK experiments in rats after oral dosing, plasma compound (I); format: in vivo, Han Wistar rats; conditions: Wistar rats; for Observed metabolite, in vivo PK study after oral dosing (rats): plasma
Description: Plasma was placed on water-ice following collection. Final storage at approximately −70° C.
Mobile phase B: Acetonitrile. […] Flow rate 0.5 mL/min.
The rats had unrestricted access to the diet.
Mobile phase B: Acetonitrile+0.2% formic acid. […] Flow rate 0.3 mL/min.
Dosing and blood sampling for compound (Ic), compound (2), compound (3), compound (8), and compound (9): Han Wistar rats were supplied by Envigo, UK. […] The rats received a standard laboratory diet Teklad 2014C. The rats had unrestricted access to the diet. […] Rats were given 494 μg/kg (Ic), 392 μg/kg compound (8), 426 μg/kg compound (9), 359 μg/kg compound (3) and 551 μg/kg compound (2).

human 5-HT2B receptor = biological target: T1, human 5-HT2B receptor (Homo sapiens, UniProt P41595); assay: 5-HT2B agonist activity assay (IP1 production, HTRF, transfected CHO cells); format: cell-based
T1 construct: host or cells: CHO cells
Description: Evaluation of the agonist activity of compounds (I), (Ia), (Ib), (Ic), compound (2), compound (3), compound (6), compound (8), and compound (9) at the human 5-HT2B receptor was performed by Eurofins/Cerep (France) measuring the compound effects on inositol monophosphate (IP1) production using the HTRF detection method. Briefly, the human 5-HT2B receptor was expressed in transfected CHO cells. The cells were suspended in a buffer containing 10 mM Hepes/NaOH (pH 7.4), 4.2 mM KCl, 146 mM NaCl, 1 mM CaCl2, 0.5 mM MgCl2, 5.5 mM glucose and 50 mM LiCl, then distributed in microplates at a density of 4100 cells/well and incubated for 30 minutes at 37° C. in the presence of buffer (basal control), test compound or reference agonist. For stimulated control measurement, separate assay wells contained 1 μM 5-HT. Following incubation, the cells were lysed and the fluorescence acceptor (fluorophen D2-labeled IP1) and fluorescence donor (anti-IP1 antibody labeled with europium cryptate) were added. After 60 minutes at room temperature, the fluorescence transfer was measured at lambda(Ex) 337 nm and lambda(Em) 620 and 665 nm using a microplate reader (Rubystar, BMG). The IP1 concentration was determined by dividing the signal measured at 665 nm by that measured at 620 nm (ratio). The results were expressed as a percent of the control response to 1 μM 5-HT. The standard reference agonist was 5-HT, which was tested in each experiment at several concentrations to generate a concentration-response curve from which its EC50 value is calculated as described above for dopamine functional assays.

[4] = human hepatocytes; cited from earlier work
[5] = rat hepatocytes; cited from earlier work
[6] = man, oral dosing, extensive hepatic first-pass metabolism; cited from earlier work
[7] = PD patients, intravenous (IV); cited from earlier work
[8] = Conversion of compounds in human hepatocytes; format: in vitro ADME; conditions: 1 μM compound, 37° C.
Description: Incubations were conducted in 96-well plates at 1 μM compound concentration in duplicate. The hepatocyte cell concentration was 0.5×10^6 cells/mL used for final incubation at 37° C. in an incubator of 5% CO2 95% relative humidity. The medium control samples were included at 0 and 60 minutes in the absence of cells. The total organic concentration was 1% (DMSO 0.1%) in the final incubation. The controls, (7-ethoxycoumarin and 7-hydroxycoumarin) was incubated parallel at […]. 2 μL of dosing solution (50 μM for test compounds and 100 μM for positive control) was mixed with 98 μL of 100 mM PBS to achieve 1 μM test compound and 2 μM positive control of final concentration. The mixture was incubated, and samples were withdrawn from the incubations at pre-determined time points of 0, 0.5, 1, 2, 4 and 6 hours (in duplicate) at 37° C. in water bath. To each sample, 10 μL inhibitor and 20 μL ascorbic acid and 2 μL formic acid (20%) were added followed by 400 μL of stop solution (200 ng/mL tolbutamide plus 200 ng/mL labetalol in 50% ACN/MeOH). The substance was mixed thoroughly and thereafter centrifuged at 4,000 rpm for 20 minutes. An aliquot of supernatant (50 μL) from each well were transferred to a sample plate and mixed with 100 μL ultrapure water. The plate was shaked at 800 rpm for about 10 minutes before submitting to LC-MS/MS analysis. […]

[9] = Conversion of compounds in human plasma; format: in vitro ADME; conditions: for Observed metabolite, incubation in human plasma: 1 μM test compound, 37° C., 0-6 hours
Description: Frozen human plasma was thawed and then centrifuged at 3200×g for 5 minutes to remove debris. The pH value of the supernatant was then measured and adjusted to 7.4±0.1 by adding 1% phosphoric acid or 1 N sodium hydroxide. 2 μL of dosing solution (50 μM for test compounds and 100 μM for positive control (propantheline bromide)) was mixed with 98 μL of blank plasma to achieve 1 μM test compound and 2 μM positive control of final concentration. The mixture was incubated, and samples were withdrawn from the incubations at the pre-determined time points of 0, 0.5, 1, 2, 4 and 6 hours (in duplicate) at 37° C. in water bath. At each corresponding time point 10 μL inhibitor and 20 μL ascorbic acid and 2 μL formic acid (20%) are added, and then added 400 μL of “stop solution” (200 ng/mL tolbutamide plus 200 ng/mL labetalol in 50% ACN/MeOH) to precipitate protein. The substance was mixed thoroughly and thereafter centrifugated at 4,000 rpm for 20 minutes. Then an aliquot of supernatant (50 μL) was transferred from each well to a sample plate and mixed with 100 μL ultrapure water. The plate was shaked at 800 rpm for about 10 minutes before submitting to LC-MS/MS analysis.
Instrumentation used for analysis of plasma and hepatocyte incubation samples:
Mass spectrometer (LC-MS/MS) Shimadzu LC 20-AD Shimadzu UHPLC API 4000. Analytical column ACQUITY UPLC® BEH Phenyl 1.7 μm 2.1×50 mm. Mobile phase A: 0.1% Formic Acid in water. Mobile phase B: 0.1% formic acid in acetonitrile. […] Flow rate 0.7 mL/min.

[10] = rats; cited from earlier work; remark: listed apart in the source
[11] = percent of the control response to 1 μM 5-HT

T1 sequence (P41595 whole entry): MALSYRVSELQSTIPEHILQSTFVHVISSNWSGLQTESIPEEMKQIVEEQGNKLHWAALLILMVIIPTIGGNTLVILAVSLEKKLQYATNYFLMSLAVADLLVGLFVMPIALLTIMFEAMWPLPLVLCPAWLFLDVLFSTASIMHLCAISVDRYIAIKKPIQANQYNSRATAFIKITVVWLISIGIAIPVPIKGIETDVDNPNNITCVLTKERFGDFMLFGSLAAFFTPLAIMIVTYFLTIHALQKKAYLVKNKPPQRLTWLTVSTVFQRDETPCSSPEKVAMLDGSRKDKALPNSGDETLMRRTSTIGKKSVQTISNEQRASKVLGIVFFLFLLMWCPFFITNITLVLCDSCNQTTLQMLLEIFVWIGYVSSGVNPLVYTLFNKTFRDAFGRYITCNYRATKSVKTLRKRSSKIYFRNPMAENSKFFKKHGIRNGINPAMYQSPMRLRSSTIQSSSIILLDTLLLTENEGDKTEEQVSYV

Question: What does the source list for `CCCN1CCC[C@@H]2CC3=C(CCCC3=O)C[C@H]21` [(Ia), reference compound]?
Answer: In vivo pharmacology, efficacy [1]: effective; Conversion to the active compound (I) [2]: converted to the active compound (I); Plasma concentration profile of compound (I) after oral dosing, in words [3]: early and high peak plasma concentrations of compound (I); 5-HT2B % effect @ 30 μM (human 5-HT2B receptor; 30 μM, percent of the control response to 1 μM 5-HT): 58%

Question: With `CCCN1CCC[C@@H]2Cc3c(ccc4c3OCO4)C[C@H]21` [(Ib), (6aR,10aR)-7-propyl-6,6a,7,8,9,10,10a,11-octahydro-[1,3]dioxolo[4′,5′:5,6]benzo[1,2-g]quinoline] as the molecule, how does the “In vivo pharmacology, efficacy” value [1] read?
Answer: The value was “effective”.

Question: And the “Conversion to compound (I)” value [4]?
Answer: Its value is “demonstrated”.

Question: What about the “Plasma concentration profile of compound (I) after oral dosing, in words” value [3] of the same molecule?
Answer: The value was “early and high peak plasma concentrations of compound (I)”.

Question: What about the “Conversion to compound (I)” value [5] of the same molecule?
Answer: The value was “demonstrated”.

Question: What about the “5-HT2B receptor agonism, in words” value (human 5-HT2B receptor) of the same molecule?
Answer: The value was “agonist of the 5-HT2B receptor”.

Question: With `CCCN1CCC[C@@H]2Cc3c(ccc(OC(=O)C(C)(C)C)c3OC(=O)C(C)(C)C)C[C@H]21` [(Ic), reference compound] as the molecule, how does the “Plasma concentration profile of compound (I) after oral dosing, in words” value [3] read?
Answer: Its value is “extremely low”.

Question: And the “5-HT2B % effect @ 10 μM” value (human 5-HT2B receptor; [11])?
Answer: Its value is −5% @ 10 μM.

Question: For `CCCc1cc2c(s1)CN[C@@H]1CCc3cc(OC(C)=O)c(OC(C)=O)cc3[C@@H]21` [Adrogolide], which Oral bioavailability [6] is on record?
Answer: The Oral bioavailability was roughly 4%.

Question: What about the Antiparkinson efficacy [7] of the same molecule?
Answer: The Antiparkinson efficacy was “comparable to that of L-DOPA”.

Question: What does the source list for `CCCN1CCC[C@@H]2Cc3c(ccc(OCc4ccccc4)c3O)C[C@H]21` [Compound (2), (4aR,10aR)-7-(benzyloxy)-1-propyl-1,2,3,4,4a,5,10,10a-octahydrobenzo[g]quinolin-6-ol]?
Answer: Observed metabolite, incubation in human hepatocytes [8]: Compound (1); Observed metabolite, incubation in human plasma [9]: Compound (1); Observed metabolite, in vivo PK study after oral dosing (rats) [3]: Compound (1); 5-HT2B % effect @ 10 μM (human 5-HT2B receptor; [11]): 30% @ 10 μM

Question: Which “Observed metabolite, incubation in human hepatocytes” value [8] does the source give for `CCCN1CCC[C@@H]2Cc3c(ccc(OC)c3O)C[C@H]21` [Compound (3), (4aR,10aR)-7-methoxy-1-propyl-1,2,3,4,4a,5,10,10a-octahydrobenzo[g]quinolin-6-ol] here?
Answer: Its value is “Compound (1)”.

Question: What about the “Observed metabolite, in vivo PK study after oral dosing (rats)” value [3] of the same molecule?
Answer: Its value is “Compound (1)”.

Question: And the “5-HT2B % effect @ 10 μM” value (human 5-HT2B receptor; [11])?
Answer: The value was 27% @ 10 μM.

Question: What does the source list for `CCCN1CCC[C@@H]2Cc3c(ccc(OP(=O)(O)O)c3OP(=O)(O)O)C[C@H]21` [Compound (6), (4aR,10aR)-1-propyl-1,2,3,4,4a,5,10,10a-octahydrobenzo[g]quinoline-6,7-diyl bis(dihydrogen phosphate)]?
Answer: Observed metabolite, incubation in human plasma [9]: Compound (8); Observed metabolite, incubation in human plasma ([9]; listed as compound (6)): compound (8) was formed; Appearance of compound (I) in incubation ([9]; human plasma, in words): no appearance of compound (I) was observed; 5-HT2B % effect @ 10 μM (human 5-HT2B receptor; [11]): 4% @ 10 μM

Question: What does the source list for `CCCN1CCC[C@@H]2Cc3c(ccc(O)c3OP(=O)(O)O)C[C@H]21` [Compound (8), (4aR,10aR)-7-hydroxy-1-propyl-1,2,3,4,4a,5,10,10a-octahydrobenzo[g]quinolin-6-yl dihydrogen phosphate]?
Answer: Observed metabolite, incubation in human plasma [9]: Compound (1); Observed metabolite, in vivo PK study after oral dosing (rats) [3]: Compound (1); 5-HT2B % effect @ 1 μM (human 5-HT2B receptor; 1 μM, percent of the control response to 1 μM 5-HT): 0% @ 1 μM

Question: Which results are given for `CCC[N@+]1(COP(=O)([O-])O)CCC[C@@H]2Cc3c(ccc(O)c3O)C[C@H]21` [Compound (9), ((1S,4aR,10aR)-6,7-dihydroxy-1-propyl-1,2,3,4,4a,5,10,10a-octahydrobenzo[g]quinolin-1-ium-1-yl)methyl hydrogen phosphate]?
Answer: Observed metabolite, incubation in human plasma [9]: Compound (1); Observed metabolite, in vivo PK study after oral dosing (rats) [3]: Compound (1); 5-HT2B % effect @ 10 μM (human 5-HT2B receptor; [11]): −1% @ 10 μM

Question: Which “In vivo pharmacology, efficacy” value [1] does the source give for `CCCN1CCC[C@@H]2Cc3c(ccc(O)c3O)C[C@H]21` [compound (I), (4aR,10aR)-1-n-Propyl-1,2,3,4,4a,5,10,10a-octahydro-benzo[g]quinoline-6,7-diol] here?
Answer: Its value is “effective”.

Question: What about the “Half-life in the plasma assay” value ([9]; human plasma, in words) of the same molecule?
Answer: Its value is “short half-life”.

Question: And the “Oral bioavailability, in words” value [10]?
Answer: The value was “low oral bioavailability”.
